The test has as its system PCSK9. The test is described as follows: PCSK9 lowering in sandwich culture human hepatocytes (SCHH). The test is classed as cell-based. Particulars: sandwich culture primary cryopreserved human hepatocytes, secreted PCSK9 by AlphaLISA. The protocol: PCSK9 Lowering and Compound Concentration Determination in Sandwich Culture Human Hepatocytes (SCHH)
Test compound in-vitro pharmacokinetic and pharmacodynamic relationships were measured in sandwich culture primary cryopreserved human hepatocytes. Within these studies SCHH cells (BD Biosciences IVT) were thawed at 37° C. then placed on ice, after which the cells were added to pre-warmed (37° C.) In VitroGRO-HT media and centrifuged at 50×g for 3 min. The cell pellet was re-suspended to 0.8×10^6 cells/mL in InVitroGRO-CP plating medium and cell viability determined by trypan blue exclusion. On day 1, hepatocyte suspensions were plated in BioCoat 96-well plates at a density of 80000 cells/well in a volume of 0.1 mL/well. After 18 to 24 hours of incubation at 37° C. in 5% CO2, cells were overlaid with ice-cold 0.25 mg/mL BD Matrigel Matrix Phenol Red-Free in incubation medium at 0.1 mL/well. Cultures were maintained at 37° C. in 5% CO2 in InVitroGRO-HI (FBS-free media), which was replaced every 24 hours and time course treatments were initiated on day 5. […] Percent PCSK9 lowering versus vehicle treated cells was then determined for each time point and the maximum response (and the corresponding concentration and time when observed) is reported under the Sandwich Culture Hepatocyte (SCHH) PCSK9 lowering summarized in Table 3. […]
For orientation: In Alpha technology, singlet oxygen from a donor bead excites a nearby acceptor bead.

The values below come from patent publication US20160102074A1, “SUBSTITUTED AMIDE COMPOUNDS” (PFIZER INC., priority 2014, published 2016).

As to `Cn1ncc(-c2ccc(C(=O)N(c3ncccc3Cl)[C@@H]3CCCNC3)cc2F)c1-c1nn[nH]n1` [Example 3, N-(3-chloropyridin-2-yl)-3-fluoro-4-[1-methyl-5-(2H-tetrazol-5-yl)-1H-pyrazol-4-yl]-N-[(3R)-piperidin-3-yl]benzamide], the IC50 (as a rule, the midpoint of a concentration-inhibition curve) turned out to be 63.4 µM. This counts as double-digit micromolar.
